Reference: patent US8445467B2, “Reducing risk of type 2 diabetes (T2D)” (Joslin Diabetes Center, Inc., priority 2006, dated 2013)
Values joined by “and” are separate entries in the source; they are usually repeats but may differ in a detail not shown here. Equal values may be shown once. “Also recorded” adds a separate entry of the source.

Assays:
[1] = system: overweight non-diabetic adults; assay: Cytokines, adipokines and inflammatory markers pre- and post-one month of therapy; format: in vivo, human
Protocol: (§1) The ability of high doses of systemic salsalate to reduce systemic inflammation and improve metabolic parameters was investigated in a double-masked placebo controlled trial of 20 overweight non-diabetic adults (age: 24 yrs±1, gender 17F/3M, BMI 38 kg/m^2±2), evaluated at baseline and after one month of dally administration of oral salsalate 4 g or placebo.
(§2) Glucose was measured by glucose oxidation, cholesterol and HDL by cholesterol esterase assay, triglycerides via hydrolysis to glycerol and FFA (Beckman Synchron CX3delta and CX9, Beckman Coulter, Brea, Calif.), and glycohemoglobin by HPLC (TOSHO 2.2™, Tosoh Bioscience, San Francisco, Calif.). Immunoassays were performed in duplicate on serum specimens by commercial assay including RIA for insulin and C-peptide (Diagnostic Systems Laboratories, Webster, Tex.), and adiponectin (Linco research, St. Charles, Mo., USA); ELISA for free fatty acids (WAKO chemicals, Richmond, Va., USA), and IL-6 and VCAM-1 (R& D Systems, Minneapolis, Minn., USA). CRP was analysed by immunoturbidometry (WAKO chemicals, Richmond, Va., USA), Salicylate levels were assessed commercially using a colorimetric assay (Quest Laboratories, Cambridge, Mass., USA). Glycated albumin was evaluated with the use of a Hitachi 911 lipid and protein analyzer and kits from AsahiKasei (Tokyo, JP). Glycated albumin was calculated by determining (1) the colorimetric measurement of total, albumin; (2) partial enzymatic digestion of albumin at glycated sites; (3) re-assessment of albumin; (4) % glycated albumin=1-3.
(§3) The primary endpoint was change from, baseline in glycemic measures using between group comparisons. Secondary outcomes were also assessed as change from baseline within group. Data are presented as mean±standard error unless otherwise noted. Unpaired (salsalate vs. placebo) and paired (pre vs. post) Student t-tests were performed. Treatment effects were determined by calculating differences between baseline sad end of treatment values divided by the baseline value to determine a percent change for each participant. Repeated measures of ANOVA and area under curve analyses were performed to compare response to oral glucose load before and after treatment. Only subjects completing the trial were included in data analysis. Results were considered significant with two-tailed p-values <0.05.
To evaluate the proposed anti-inflammatory mechanism of action for improvement in glycemia, cytokines and adipokines were assessed pre- and post-one month of therapy in the same population described in Example 1.

[2] = system: overweight non-diabetic adults; assay: Insulin, C-peptide and HOMA-IR in double-masked placebo controlled trial; format: in vivo, human
Excerpt: as §1
(§4) Participants were instructed to consume a standard high-carbohydrate diet (250-300 grams/day) and abstain from strenuous exercise for three days prior to undergoing, baseline and final evaluations. Subjects were additionally instructed not to alter dietary or exercise habits daring the study Blood pressure was measured twice with the patient supine for 10 minutes. Fasting lipids and cytokines were measured, and oral glucose tolerance tests (OGTT) were performed with glucose, insulin, C-peptide and free fatty acid levels measured prior to and 30, 60, 90 and 120 minutes after 75-gram glucose load. All subjects were non-diabetic based on current American Diabetes Association guidelines (Diagnosis and Classification of Diabetes Mellitus. Diabetes Care 28:S37-S42 (2005)). AUC data were calculated by triangulation. Insulin resistance was determined using homeostasis model assessment (HOMA-IR) for insulin and C-peptide as described using the modified formula: HOMA-IRC-peptide=(fasting C-peptide*fasting glucose)/22.5 See, e.g., Matthews et al, Diabetologia 28:41.2-419 (1985); Wallace et al., Diabetes Care 27; 1487-4495 (2004).
(§5) Compliance was evaluated with blood salicylate levels.
as §2, §3

cyclooxygenase enzymes = settings: cited from earlier work
IKKβ/NF-κB = settings: cited from earlier work
[3] = system: overweight non-diabetic adults; assay: Safety and tolerability in the trial
[4] = system: overweight non-diabetic adults; assay: Glycemia (fasting glucose, OGTT, glycated albumin) in double-masked placebo controlled trial; format: in vivo, human
Excerpt: as §1
Subjects were under 30 years old, and obese as defined by a body mass Index (BMI) of ≧ 30 kg/m^2 Participants were excluded for recent blood donation, change in weight of more than 5% in the preceding six months or use of medication known to alter weight, acute febrile illness, biochemical evidence of renal or hepatic dysfunction, aspirin allergy, history of gastritis or gastrointestinal bleeding, current medications known to altar glucose metabolism, or diabetes mellitus based on screening evaluation. Female participants were excluded for pregnancy, lactation, or lack of current use of a hormonal or barrier contraceptive method.
as §4, §5, §2
as §3, with “Repeated measures of ANOVA and area under curve analyses were performed to compare response to oral glucose load before and after treatment. Only subjects completing the trial were included in data analysis. Results were considered significant with two-tailed p-values <0.05.” left out

[5] = following one month of salsalate therapy
[6] = over the one-month period, p>0.1

O=C(Oc1ccccc1C(=O)O)c1ccccc1O [salsalate, 2-hydroxybenzoE acid, 2-carboxyphenyl ester]
adiponectin compared to placebo (FIG. 3A) [1]: increased significantly
fasting non-esterified fatty acids (FFA) levels after treatment ([1]; after one month of salsalate, baseline 0.46±0.08, p=0.05): 0.25±0.05 mEq/L
adiponectin after treatment ([1]; after one month of salsalate, baseline 10.6±1.7, p=0.01): 16.2 ± 2.7 mg/L
CRT concentrations after treatment ([1]; after one month of salsalate, baseline 48.2±10.5, p=0.05): 30.2 ± 7.4 nmol/L
II-6 [1, 5]: did not change significantly
soluble VCAM-1 [1, 5]: did not change significantly
adiponectin increase, change from baseline ([1]; one month of salsalate, placebo decreased 1±5%, p=0.003): 56±17%
C-reactive protein (CRP) following treatment (FIG. 3B) ([1]; p<0.05): lower
Free Fatty Acids (FFA) following treatment (FIG. 3B) ([1]; p<0.05): lower
fasting C-peptide levels after treatment ([2]; after one month of salsalate, baseline 1.6±0.2, p=0.02): 1.1 ± 0.2 nmol/L
reduction in C-peptide AUC post glucose challenge ([2]; one month of salsalate, placebo increase of 4±7%, p=0.02): 23±4%
reduction in fasting C-peptide, change from baseline ([2]; one month of salsalate, placebo increase of 5±6%, p<0.01): 30±7%
HOMA IRc peptide lowered by ([2]; one month of salsalate, placebo increased 9±5%, p=0.003): 35±8%
HOMA-IR using insulin, post treatment ([2]; post one month of salsalate, pre 4.6±0.9, p=0.9, not significantly changed): 4.2±0.6
fasting insulin values ([2]; pre vs post one month of salsalate): unchanged
insulin levels following glucose challenge ([2]; pre- and post-salsalate, 75 g oral glucose): remained unchanged
insulin sensitivity calculated by HOMA IRc-peptide (FIG. 2C) ([2]; salsalate compared to placebo): improvement
C peptide response to Oral Glucose Tolerance Test calculated by AUC (FIG. 2C) ([2]; salsalate vs placebo): significant between group difference
inhibition of cyclooxygenase enzymes compared to aspirin (cyclooxygenase enzymes): much weaker inhibitor
inhibition of IKKβ/NF-κB compared to aspirin (IKKβ/NF-κB): equipotent inhibitor
reduced dose tolerated without symptoms (individual participants) ([3]; actively treated participants after dose reduction): 3.5 grams per day and 3.0 grams per day
participants with transient mild transaminitis at the final visit ([3]; actively treated, resolved spontaneously): two
changes in anion gap ([3]; during the trial): no noted changes
changes in laboratory analysis of electrolytes ([3]; during the trial): no noted changes
changes in laboratory analysis of renal function ([3]; during the trial): no noted changes
ALT/AST elevation in individual actively treated participants ([3]; final visit, resolved spontaneously): similarly mild elevation in both ALT and AST; also recorded: less than twice the upper range of normal
participants requiring dose reduction due to complaints of tinnitus, headache or dizziness ([3]; initiated on 4.0 grams/day orally in two equal doses, on study medication): Two
symptomatic hypoglycemia ([3]; one month, 4 g daily): No symptomatic hypoglycemia
change in mean alanine aminotransferase (ALT) [3, 6]: no statistically significant change
change in mean aspartate aminotransferase (AST) [3, 6]: no statistically significant change
respiratory distress ([3]; participants with rash on active therapy): No respiratory distress
participants withdrawn due to rash ([3]; received active therapy): three
fasting glucose compared to placebo (FIG. 1A) [4]: reduced
glycated albumin compared to placebo (FIG. 1A) [4]: reduced
post oral glucose challenge glucose area under the curve compared to placebo (FIG. 1A) [4]: reduced
fasting plasma glucose level after treatment ([4]; after one month of salsalate, baseline 5.0±0.2, p<0.03): 4.6 ± 0.1 mmol/L
glycated albumin after treatment ([4]; after one month of salsalate, baseline 12.4±0.4%, p<0.003): 10.3±0.3%
reduction in glucose area under the curve during oral glucose tolerance testing ([4]; oral salsalate 4 g daily, one month, 75 g oral glucose, placebo increased by 6±3%, p=0.003): 14±5%
reduction in fasting glucose, change from baseline ([4]; oral salsalate 4 g daily, one month, mean±SE, placebo increase of 5±2%, p<0.002): 8±4%
reduction in glycated albumin, change from baseline ([4]; oral salsalate 4 g daily, one month, placebo 0.6±0.9%, p<0.002): 17±4%
glycemia response to glucose load ([4]; within group, one month of salsalate, repeated measure analysis p<0.01): improvements in glycemia; also recorded: improved
